Test results as given in ChEMBL document CHEMBL1201861, “Genomics of Drug Sensitity in Cancer screening data, Wellcome Trust Sanger Institute”.

Columns and labels:
Experiment in all cases: cells
LU-134-A = format: functional, cell-based; details: Homo sapiens
Description: SANGER: Inhibition of human LU-134-A cell growth in a cell viability assay.

MDA-MB-361 = format: functional, cell-based, Homo sapiens; details: Homo sapiens, MDA-MB-361
LoVo = format: functional, cell-based; details: Homo sapiens;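 note: growth inhibition of human LoVo cells, read out with a cell viability assay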
Description: SANGER: Inhibition of human LoVo cell growth in a cell viability assay.

GI-ME-N = format: functional, cell-based, Homo sapiens; details: Homo sapiens, GI-ME-N;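 note: growth inhibition of human GI-ME-N cells, read out with a cell viability assay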
Description: SANGER: Inhibition of human GI-ME-N cell growth in a cell viability assay.

KYSE-140 = format: functional, cell-based, Homo sapiens; details: Homo sapiens, KYSE-140;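 note: cell viability assay measuring growth inhibition in human KYSE-140 cells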
Description: SANGER: Inhibition of human KYSE-140 cell growth in a cell viability assay.

NCI-H810 = format: functional, cell-based, Homo sapiens; details: Homo sapiens, NCI-H810;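 note: IC50 reflects inhibition of cancer cell line growth, read out with a cell viability assay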
Description: SANGER: Inhibition of human NCI-H810 cell growth in a cell viability assay.

Hs-578T = format: functional, cell-based, Homo sapiens; details: Homo sapiens, Hs-578T
Description: SANGER: Inhibition of human Hs-578-T cell growth in a cell viability assay.

MZ7-mel = format: functional, cell-based, Homo sapiens; details: Homo sapiens, MZ7-mel;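 note: growth inhibition of human MZ7-mel cells, measured by a cell viability assay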
Description: SANGER: Inhibition of human MZ7-mel cell growth in a cell viability assay.

RS4-11 = format: functional, cell-based; details: Homo sapiens;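 note: growth inhibition of RS4-11 cells, read out by a cell viability assay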
Description: SANGER: Inhibition of human RS4-11 cell growth in a cell viability assay.

RCM-1 = format: functional, cell-based, Homo sapiens; details: Homo sapiens, RCM-1;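 note: growth inhibition of the RCM-1 line, determined with a cell viability readout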
Description: SANGER: Inhibition of human RCM-1 cell growth in a cell viability assay.

UACC-893 = format: functional, cell-based, Homo sapiens; details: Homo sapiens, UACC-893
Description: SANGER: Inhibition of human UACC-893 cell growth in a cell viability assay.

SK-LU-1 = format: functional, cell-based, Homo sapiens; details: Homo sapiens, SK-LU-1;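 note: cell viability assay measuring growth inhibition of human SK-LU-1 cells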
Description: SANGER: Inhibition of human SK-LU-1 cell growth in a cell viability assay.

NCI-H358 = format: functional, cell-based, Homo sapiens; details: Homo sapiens, NCI-H358;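 note: growth inhibition of NCI-H358 human cells, read out with a cell viability assay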
Description: SANGER: Inhibition of human NCI-H358 cell growth in a cell viability assay.

HEC-1 = format: functional, cell-based, Homo sapiens; details: Homo sapiens, HEC-1;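 note: growth inhibition of the cell line, read out with a cell viability assay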
Description: SANGER: Inhibition of human HEC-1 cell growth in a cell viability assay.

TGW = format: functional, cell-based; details: Homo sapiens;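 note: growth inhibition of human TGW cells, read out with a cell viability assay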
Description: SANGER: Inhibition of human TGW cell growth in a cell viability assay.

Ca-Ski = format: functional, cell-based; details: Homo sapiens;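 note: cell viability assay measuring inhibition of Ca-Ski cell growth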
Description: SANGER: Inhibition of human Ca-Ski cell growth in a cell viability assay.

NCI-H2347 = format: functional, cell-based, Homo sapiens; details: Homo sapiens, NCI-H2347;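 note: growth inhibition of the cell line, read out with a cell viability assay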
Description: SANGER: Inhibition of human NCI-H2347 cell growth in a cell viability assay.

BV-173 = format: functional, cell-based; details: Homo sapiens
Description: SANGER: Inhibition of human BV-173 cell growth in a cell viability assay.

SW780 = format: functional, cell-based, Homo sapiens; details: Homo sapiens, SW780;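 note: growth inhibition of the cells, read out with a cell viability assay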
Description: SANGER: Inhibition of human SW780 cell growth in a cell viability assay.

SK-MEL3 = format: functional, cell-based, Homo sapiens, SK-MEL-3; details: Homo sapiens, SK-MEL3;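 note: growth inhibition of human SK-MEL-3 cells, read out with a cell viability assay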
Description: SANGER: Inhibition of human SK-MEL-3 cell growth in a cell viability assay.

LAN-6 = format: functional, cell-based, Homo sapiens; details: Homo sapiens, LAN-6;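 note: growth inhibition of LAN-6 cells, determined with a cell viability assay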
Description: SANGER: Inhibition of human LAN-6 cell growth in a cell viability assay.

MOLT-4 = format: functional, cell-based; details: Homo sapiens;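 note: growth inhibition of MOLT-4 cells, determined with a cell viability readout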
Description: SANGER: Inhibition of human MOLT-4 cell growth in a cell viability assay.

D-502MG = format: functional, cell-based, Homo sapiens; details: Homo sapiens, D-502MG
Description: SANGER: Inhibition of human D-502MG cell growth in a cell viability assay.

ALL-PO = format: functional, cell-based; details: Homo sapiens;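 note: growth inhibition of ALL-PO cells, read out by a cell viability assay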
Description: SANGER: Inhibition of human ALL-PO cell growth in a cell viability assay.

COLO-741 = format: functional, cell-based, Homo sapiens; details: Homo sapiens, COLO-741
Description: SANGER: Inhibition of human COLO-741 cell growth in a cell viability assay.

GT3TKB = format: functional, cell-based, Homo sapiens; details: Homo sapiens, GT3TKB;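 note: growth inhibition of the cell line, read out with a cell viability assay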
Description: SANGER: Inhibition of human GT3TKB cell growth in a cell viability assay.

SCC-25 = format: functional, cell-based, Homo sapiens; details: Homo sapiens, SCC-25;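 note: growth inhibition of SCC-25 cells, measured with a cell viability assay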
Description: SANGER: Inhibition of human SCC-25 cell growth in a cell viability assay.

RCC10RGB = format: functional, cell-based, Homo sapiens; details: Homo sapiens, RCC10RGB;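 note: growth inhibition of human RCC10RGB cells, read out by a cell viability assay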
Description: SANGER: Inhibition of human RCC10RGB cell growth in a cell viability assay.

HT1197 = format: functional, cell-based, Homo sapiens, HT-1197; details: Homo sapiens, HT1197
Description: SANGER: Inhibition of human HT-1197 cell growth in a cell viability assay.

HCC70 = format: functional, cell-based, Homo sapiens; details: Homo sapiens, HCC70;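 note: cell viability assay measuring how strongly the compound suppresses proliferation of HCC70 cells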
Description: SANGER: Inhibition of human HCC70 cell growth in a cell viability assay.

KYSE-150 cell line = format: functional, cell-based, Homo sapiens; details: Homo sapiens, KYSE-150;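 note: growth inhibition of human KYSE-150 cells, read out with a cell viability assay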
Description: SANGER: Inhibition of human KYSE-150 cell growth in a cell viability assay.

MV4-11 = format: functional, cell-based, MV-4-11; details: Homo sapiens;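 note: cell viability readout measuring growth inhibition of human MV-4-11 cells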
Description: SANGER: Inhibition of human MV-4-11 cell growth in a cell viability assay.

JVM-3 = format: functional, cell-based; details: Homo sapiens;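 note: growth inhibition of human JVM-3 cells, read out with a cell viability assay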
Description: SANGER: Inhibition of human JVM-3 cell growth in a cell viability assay.

D-392MG = format: functional, cell-based, Homo sapiens; details: Homo sapiens, D-392MG
TYK-nu = format: functional, cell-based, Homo sapiens; details: Homo sapiens, TYK-nu;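 note: growth inhibition of human TYK-nu cells, read out by a cell viability assay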
Description: SANGER: Inhibition of human TYK-nu cell growth in a cell viability assay.

BT-474 = format: functional, cell-based, Homo sapiens; details: Homo sapiens, BT-474
Description: SANGER: Inhibition of human BT-474 cell growth in a cell viability assay.

NCI-H2087 = format: functional, cell-based, Homo sapiens; details: Homo sapiens, NCI-H2087;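 note: growth inhibition determined with a cell viability readout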
Description: SANGER: Inhibition of human NCI-H2087 cell growth in a cell viability assay.

OE19 = format: functional, cell-based, Homo sapiens; details: Homo sapiens, OE19;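 note: growth inhibition of OE19 cells, measured through a cell viability read-out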
Description: SANGER: Inhibition of human OE19 cell growth in a cell viability assay.

KP-N-YN = format: functional, cell-based; details: Homo sapiens;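 note: growth inhibition of KP-N-YN cells, read out with a cell viability assay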
Description: SANGER: Inhibition of human KP-N-YN cell growth in a cell viability assay.

GMS-10 = format: functional, cell-based, Homo sapiens; details: Homo sapiens, GMS-10;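 note: growth inhibition of GMS-10 cells, read out as cell viability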
Description: SANGER: Inhibition of human GMS-10 cell growth in a cell viability assay.

HCC1569 = format: functional, cell-based, Homo sapiens; details: Homo sapiens, HCC1569;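 note: growth inhibition of human HCC1569 cells, read out with a cell viability assay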
Description: SANGER: Inhibition of human HCC1569 cell growth in a cell viability assay.

KYSE-450 = format: functional, cell-based; details: Homo sapiens;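 note: cell growth inhibition measured by a viability assay in human KYSE-450 cells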
Description: SANGER: Inhibition of human KYSE-450 cell growth in a cell viability assay.

SCC-9 = format: functional, cell-based, Homo sapiens; details: Homo sapiens, SCC-9;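 note: Read-out is a cell viability assay, with values giving inhibition of cell growth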
Description: SANGER: Inhibition of human SCC-9 cell growth in a cell viability assay.

L-363 = format: functional, cell-based; details: Homo sapiens
Description: SANGER: Inhibition of human L-363 cell growth in a cell viability assay.

NCI-H2405 = format: functional, cell-based, Homo sapiens; details: Homo sapiens, NCI-H2405;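 note: growth inhibition of the human cell line, read out with a cell viability assay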
Description: SANGER: Inhibition of human NCI-H2405 cell growth in a cell viability assay.

WM-115 = format: functional, cell-based, Homo sapiens; details: Homo sapiens, WM-115
Description: SANGER: Inhibition of human WM-115 cell growth in a cell viability assay.

COR-L23 = format: functional, cell-based, Homo sapiens; details: Homo sapiens, COR-L23;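 note: cell viability assay measuring how strongly compounds suppress growth of COR-L23 cells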
Description: SANGER: Inhibition of human COR-L23 cell growth in a cell viability assay.

RXF 393 = format: functional, cell-based; details: Homo sapiens;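 note: growth inhibition of human RXF 393 cells, read out with a cell viability assay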
Description: SANGER: Inhibition of human RXF393 cell growth in a cell viability assay.

ONS-76 = format: functional, cell-based, Homo sapiens; details: Homo sapiens, ONS-76;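 note: growth inhibition of human ONS-76 cells, read out with a cell viability assay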
Description: SANGER: Inhibition of human ONS-76 cell growth in a cell viability assay.

HT-1080 = format: functional, cell-based, Homo sapiens; details: Homo sapiens, HT-1080
Description: SANGER: Inhibition of human HT-1080 cell growth in a cell viability assay.

CCRF-CEM = format: functional, cell-based; details: Homo sapiens;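 note: inhibition of CCRF-CEM cell growth, measured by a cell viability assay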
Description: SANGER: Inhibition of human CCRF-CEM cell growth in a cell viability assay.

COc1ccc(-c2ccc3c(N4CCOC[C@@H]4C)nc(N4CCOC[C@@H]4C)nc3n2)cc1CO [AZD-8055]
IC50 (LU-134-A): 1.03 µM | IC50 (MDA-MB-361): 0.509 µM | IC50 (LoVo): 0.202 µM | IC50 (GI-ME-N): 1.03 µM | IC50 (KYSE-140): 0.782 µM | IC50 (NCI-H810): > 2 µM | IC50 (Hs-578T): 0.599 µM | IC50 (MZ7-mel): > 2 µM | IC50 (RS4-11): 0.759 µM | IC50 (RCM-1): > 2 µM | IC50 (UACC-893): 0.929 µM | IC50 (SK-LU-1): 0.392 µM | IC50 (NCI-H358): > 2 µM | IC50 (HEC-1): 1.18 µM | IC50 (TGW): > 2 µM | IC50 (Ca-Ski): > 2 µM | IC50 (NCI-H2347): 0.824 µM | IC50 (BV-173): 0.0906 µM | IC50 (SW780): 0.576 µM | IC50 (SK-MEL3): 1.25 µM | IC50 (LAN-6): > 2 µM | IC50 (MOLT-4): 0.677 µM | IC50 (D-502MG): > 2 µM | IC50 (ALL-PO): 1.44 µM | IC50 (COLO-741): > 2 µM | IC50 (GT3TKB): > 2 µM | IC50 (SCC-25): 1.58 µM | IC50 (RCC10RGB): > 2 µM | IC50 (HT1197): > 2 µM | IC50 (HCC70): > 2 µM | IC50 (KYSE-150 cell line): 0.662 µM | IC50 (MV4-11): 0.103 µM | IC50 (JVM-3): 0.463 µM | IC50 (D-392MG): > 2 µM | IC50 (TYK-nu): 0.319 µM | IC50 (BT-474): 1.78 µM | IC50 (NCI-H2087): > 2 µM | IC50 (OE19): > 2 µM | IC50 (KP-N-YN): > 2 µM | IC50 (GMS-10): 1.75 µM | IC50 (HCC1569): 0.852 µM | IC50 (KYSE-450): 0.827 µM | IC50 (SCC-9): > 2 µM | IC50 (L-363): 0.39 µM | IC50 (NCI-H2405): 1.15 µM | IC50 (WM-115): 0.689 µM | IC50 (COR-L23): 1.35 µM | IC50 (RXF 393): 0.929 µM | IC50 (ONS-76): > 2 µM | IC50 (HT-1080): 0.525 µM | IC50 (CCRF-CEM): > 2 µM

COc1ccc(C2=N[C@@H](c3ccc(Cl)cc3)[C@@H](c3ccc(Cl)cc3)N2C(=O)N2CCNC(=O)C2)c(OC(C)C)c1 [NUTLIN-3]
IC50 (LU-134-A): > 8 µM | IC50 (MDA-MB-361): > 8 µM | IC50 (LoVo): 6.02 µM | IC50 (GI-ME-N): 6.22 µM | IC50 (KYSE-140): > 8 µM | IC50 (NCI-H810): > 8 µM | IC50 (Hs-578T): > 8 µM | IC50 (MZ7-mel): > 8 µM | IC50 (RS4-11): 2.72 µM | IC50 (RCM-1): > 8 µM | IC50 (UACC-893): > 8 µM | IC50 (SK-LU-1): > 8 µM | IC50 (NCI-H358): 7.45 µM | IC50 (HEC-1): > 8 µM | IC50 (TGW): > 8 µM | IC50 (Ca-Ski): > 8 µM | IC50 (NCI-H2347): > 8 µM | IC50 (BV-173): 2.84 µM | IC50 (SW780): 2.51 µM | IC50 (SK-MEL3): > 8 µM | IC50 (LAN-6): > 8 µM | IC50 (MOLT-4): 2.33 µM | IC50 (D-502MG): 2.97 µM | IC50 (ALL-PO): > 8 µM | IC50 (COLO-741): > 8 µM | IC50 (GT3TKB): > 8 µM | IC50 (SCC-25): > 8 µM | IC50 (RCC10RGB): > 8 µM | IC50 (HT1197): > 8 µM | IC50 (HCC70): > 8 µM | IC50 (KYSE-150 cell line): > 8 µM | IC50 (MV4-11): 0.612 µM | IC50 (JVM-3): 2.59 µM | IC50 (D-392MG): > 8 µM | IC50 (TYK-nu): > 8 µM | IC50 (BT-474): > 8 µM | IC50 (NCI-H2087): > 8 µM | IC50 (OE19): > 8 µM | IC50 (KP-N-YN): > 8 µM | IC50 (GMS-10): > 8 µM | IC50 (HCC1569): > 8 µM | IC50 (KYSE-450): > 8 µM | IC50 (SCC-9): > 8 µM | IC50 (L-363): > 8 µM | IC50 (NCI-H2405): > 8 µM | IC50 (WM-115): 6.93 µM | IC50 (COR-L23): > 8 µM | IC50 (RXF 393): > 8 µM | IC50 (ONS-76): 5.57 µM | IC50 (HT-1080): 7.48 µM | IC50 (CCRF-CEM): > 8 µM
